Broadly, the inhibition is the change of the read-out against control, counted positive when it falls.

SMILES strings stand for the structures.

The record followed here is patent publication US20050220906A1, “Pharmaceutical composition for treating rheumatism and the preparation thereof” (priority 2002, published 2005).

For data set [1], the system named is PCA in rat. Description: Passive cutis anaphylactic reaction (PCA). In kind it is in vivo. The settings on record: 0.1 g/kg. The procedure: The rats were injected with the egg albumn at 10 mg/kg in the muscle. At the same time, all the rats were injected with 2×10^10 (0.2 ml) bordetella pertussis in the abdominal cavity for sensitization. 2 weeks later, all the rats were killed to sample the blood. All the blood samples were separated for preparing the serum.
60 rats, 150˜200 g, half male and half female, were divided into 6 groups at random. In the light narcosis condition induced by aether, each rat was cut the fleece in the back and injected with the 2 concentrations of anti-egg-album serum 0.1 ml under the skin at the fairless place. The serums were diluted on the rates of 1:5(d1) and 1:10(d2) before the experiment. 48 hours later, all the rats were attacked by intravenous injecting the 0.5% evans blue normal saline solution 1 ml which containing 1 mg egg albumin. 20 minutes later, the rats were killed by decapitation. The rats' back skin were dissected and turned over. According to the dark and light and area of the blue stains exudated from the vessels, all the rats were evaluated by several people. The skin stained by the evens blue were scissored and soaked in 5 ml 0.1% sodium sulfate acetone (7:3) solution for 48 hours. Then it was centrifugated to separate the supernatant liquor. The supernates were measured the optical density at the wavelength 590 nm to calculate the degree of the PCA reaction and the inhibiting percent.

For data set [2], the system named is DTH caused by DNFB. As to the kind of experiment: Delayed hypersensitivity (DTH) caused by DNFB in the mouse ear. In kind it is in vivo, NIH mouse. The settings on record: 0.003 g/kg, administration day 0˜5. The procedure: Each mouse was led to hypersensitivity reaction by using the 1% DNFB acetone solution on the dosage of 0.025 ml at the right place of the abdomen where the pilus had been cut yet. Using the same solution on the same place was to enhance the hypersensitivity reaction on the third day. On the fifth day, all the mice were smeared with the 1% DNFB edible oil solution at the mice's right ears on the dosage of 0.01 ml each. 24 hours later, all the mice were killed. The mouse's 2 ears were weighted by the torsion balance and the difference of the 2 ears was recorded as the DTH degree caused by the DNFB. The experiment was carried out on the different immune and administration processes.
The immune and administration processes is as following: [drawing 1]

In data set [3] the test system is croton oil-induced swelling. Description: Croton oil-induced swelling of the ears. In kind it is in vivo, NIH mice. The settings on record: 0.003 g/kg, 3 days. The procedure: 60 NIH mice with weight of 18˜22 g, male and female accounting for half and half, were divided into 6 groups, which were drenched with the same volume and different dosage of drug liquid or tragacanth liquid, once a day, lasting 3 days. 1 hour after the final administration, 2% croton oil mixure of 0.02 ml was embrocated uniformly on the both sides of left ears of mice, and after 4 hours, the mice were snapped off its cervical vertebra and put to death. The left and right ears were cut down, then inflammatory and control ears were weighted by certain means. Difference of weight between left and right ears was the swelling extent of ears, results showing in table 11.

For data set [4], the system named is macrophage. Description: CRBC phagocytosis of abdominal macrophages. The class given is in vivo, mouse. The settings on record: 0.005 g/kg, 7 days. The procedure:
50 NIH mice, 18˜22 g weight, half male and half female, were divided into 5 groups and drenched with the correspondent medicine solutions on the same volumn. The administration was once a day for 7 days. 1 hour after the last administration, all the mice were injected with 0.2 ml 10% chick RBC into the abdominal carvity. 4 hours later, all the mice were killed and sampled the fluid in the abdomincal carvity. The liquor samples were dropped on the glass and counted the number of the macrophage which had phagocytized the CRBC and the number of the CRBC in one macrophage. (See the result in table 7)

Data set [5] relates to pleuritis induced by the carrageenan. Description: Carrageenan pleuritis: exudation and inflammatory cell aggregation. The settings on record: 0.05 g/kg. In kind it is in vivo, mice. The procedure: The mice were divided into 5 groups at random and injected with 0.5% Evans blue NS solution into the caudal vein on the dosage of 0.1 ml/10 g. Then the mice were injected with the 0.03 ml 1% carrageenan in the right chest cavity with the special syring niddle. 4 hours and 32 hours after the injection, the correspondent mice were killed and opend the obdominal cavity to expose the diaphragm. 2 ml of the lotion were injected to the chest cavity by 2 times with a 1 ml injector. The lotion was collected and saved in a test tube. 20 μl of the lotion collected was added into the 400 μl WBC dilution. The WBC in the mixed dilution was counted under the microscope. The rest of the lotion was centrifuged at 3000 rpm for 10 min. The supernate of the lotion was measured the OD at the wavelength of 600 nm. The OD value of the sample should be corrected with the correspondent OD value of the pure lotion. (See the result in table 9)

In data set [6] the test system is capillary permeability. As to the kind of experiment: Capillary permeability induced by acetic acid in the abdominal cavity. In kind it is in vivo, NIH mice. The settings on record: 0.15 g/kg, qd × 3. Here is the method: 90 NIH mice, 18˜22 g weight, half male and half female, were divided into 9 groups and drenched with the correspondent medicine solutions of the same volumn. The medicines were drenched once a day for 3 days or just 1 time. 1 hour after the last administration, each mouse were injected with 0.7% HAC-NS solution into the abdominal cavity. At the same time, each mouse was injected with the 0.5% Evans blue-NS solution into the vessel on the dose of 0.1 ml/10 g. 30 min later; all the mice were killed by cervical disjoint. The abdominal cavity was opened and washed by the 5 ml NS. The NS used was collected and adjusted to 8 ml by the pure NS as the sample. The samples were centrifuged at 3000 rpm to get the supernate. The supernate was measured the OD at the wavelength at 590 nm. (See the result in table 8)

Data set [7] in a line: Organ index of AA rats (Table 1.7). The class given is in vivo, SD rats. The settings on record: 0.01 g/kg. The source says:
(§1) 50 male SD rats were divided into 5 groups at random. The model building was same to the prevention experiment, but the correspondent medicines were drenched 13 days after the injection of the FCA. The medicines were drenched once a day for 2 weeks. The swelling degree (Δcm) was the difference of the perimeters between the value of first administration day and the other days.

Data set [8] in a line: Organ index of AA rats (prevention experiment). The class given is in vivo, SD rats. Here is the method:
(§2) 72 isogenous SD rats of the same batch, half male and half female, 180˜220 g weight, were divided randomly into 6 groups. Each group has 12 rats. Every 6 rats lived in a cage. The perimeter of the double anklejoints and the feet of the rat were measured accurately and recorded as the normal value. All the rats were drenched by the same volume of the invented medicine on the correspondent concentration or the solution of the Xihuangqi by the gastic injection. 1 hour later, all the rats were injected with 0.1 ml Freund's complete adjuvant (FCA) under the skin of the left postpedes. In the next 30 days, all the rats were drenched with the correspondent medicine once a day on the same dosage. And in these days, the rats were measured of the perimeters of the double anklejoints and the feet once a day. In this experiment, the swelling degree (Δcm) equaled to the difference value of the perimeters measured after the FCA injection and before the FCA injection. (See the result in table 1.1 and 1.2) At the end of the experiment, the major organs of the rats were weighted. (See the table 1.3, 1.4)

Data set [9] in a line: Body weight of AA rats (prevention experiment). In kind it is in vivo, SD rats. The settings on record: 0.01 g/kg. The procedure: as §2
The subject of data set [10] is rat AA model. Description: Preventing effect on adjuvant arthritis (AA): swelling degree. In kind it is in vivo, SD rats. The settings on record: 0.01 g/kg. Here is the method: as §2
For data set [11], the system named is AA rats. As to the kind of experiment: Therapeutic effect on AA: swelling degree. The class given is in vivo, SD rats. The settings on record: 0.01 g/kg.
Excerpt: as §1

On to `CN1CCC(=C2c3ccccc3CC(=O)c3sccc32)CC1` [Ketotifen], for which, in data set [1] (serum d1 (1:5)), the PCA absorbancy was 0.033 ± 0.024 and the PCA value was found to be 2.78 ± 1.64. In addition, in data set [1] (serum d2 (1:10)), the PCA absorbancy is reported as 0.027 ± 0.019 and the PCA value amounted to 0.67 ± 1.41.
As for `C[C@@H]1C[C@H]2[C@@H]3CCC4=CC(=O)C=C[C@]4(C)[C@@]3(F)[C@@H](O)C[C@]2(C)[C@@]1(O)C(=O)CO` [cortisumman], in [2], the “Percent of ear swelling” value was found to be 13.93 ± 4.41 and the Percent of inhibition was found to be 59.3%.
For the molecule `C[C@@H]1C[C@H]2[C@@H]3CCC4=CC(=O)C=C[C@]4(C)[C@@]3(F)[C@@H](O)C[C@]2(C)[C@@]1(O)C(=O)CO` [dexamethasone], the “Degree of ears' swelling” value in data set [3] was 14.13 ± 5.75 mg. Further, the inhibition at 3 mg/kg in [3] (Mus musculus, 72 h, read-out: inhibition rate) came out at 68.2%. This molecule also returned a Percent of phagocytosis in data set [4] of 8.33 ± 10.13 %. Moreover, in data set [4], the phagocytosis index worked out at 1.10 ± 0.18. Further, the values for the Tincture exudation in data set [5] (4 h) and in data set [5] (32 h) were 0.085 ± 0.045 OD and 0.063 ± 0.017 OD, respectively. The “Leakage of the tincture” value in data set [6] came to 0.11 ± 0.07 OD.
In the case of `C[C@]12C=CC(=O)C=C1CC[C@@H]1[C@@H]2C(=O)C[C@@]2(C)[C@H]1CC[C@]2(O)C(=O)CO` [prednisone], the figures for the “Organ index [(organ weight/body weight)/100] Liver” value in [7] and in data set [8] (0.01 g/kg) were 3.52 ± 0.35 and 3.04 ± 0.20, respectively. Moreover, the “Organ index [(organ weight/body weight)/100] Spleen” value in data set [7] came to 0.28 ± 0.047; in data set [8] (0.01 g/kg) it was 0.32 ± 0.08. Also, the “Organ index [(organ weight/body weight)/100] Thymus” value was 0.05 ± 0.011 in data set [7] and 0.050 ± 0.060 in [8] (0.01 g/kg). The “Organ index [(organ weight/body weight)/100] adrenal gland” value came to 0.02 ± 0.0043 in data set [7] and 0.020 ± 0.004 in data set [8] (0.01 g/kg). Besides, the “atrophy of the thymus and adrenal gland” value in data set [8] (AA rats, tables 1.4 and 1.7) is “atrophied”. Besides, the “BW at 1 month later” value in [9] turned out to be 244 ± 31 g. Further, the BW change in data set [9] was -21 g. Further, the “Initiative BW” value in [9] was determined as 264 ± 55 g. Besides, the “Swelling degree, left anklejoint and foot” value in [10] (1 d) was 0.64 ± 0.14 Δcm; in [10] (2 d), 0.64 ± 0.16 Δcm; in [10] (3 d), 0.50 ± 0.26 Δcm; in [10] (9 d) it was 0.46 ± 0.25 Δcm; in data set [10] (12 d), 0.72 ± 0.46 Δcm; in [10] (14 d), 0.87 ± 0.46 Δcm. Also, the “Swelling degree, left anklejoint and foot” value in [10] (16 d) was 1.28 ± 0.69 Δcm; in [10] (20 d) it was 1.03 ± 0.67 Δcm; in data set [10] (22 d), 1.05 ± 0.69 Δcm; in data set [10] (24 d) it was 0.90 ± 0.64 Δcm; in [10] (26 d) it was 0.86 ± 0.65 Δcm; in data set [10] (28 d) it was 0.85 ± 0.59 Δcm. Besides, the “Swelling degree, left anklejoint and foot” value in data set [11] (1 d) was 1.78 ± 0.51 Δcm; in data set [11] (2 d), 1.70 ± 0.51 Δcm; in data set [11] (4 d), 1.63 ± 0.50 Δcm; in data set [11] (6 d), 1.58 ± 0.50 Δcm; in data set [11] (8 d) it was 1.27 ± 0.46 Δcm; in [11] (10 d) it was 1.09 ± 0.54 Δcm. Also, the results for the “Swelling degree, left anklejoint and foot” value in [11] (12 d) and in [11] (14 d) were 0.94 ± 0.50 Δcm and 0.94 ± 0.42 Δcm, respectively. The “Swelling degree, left anklejoint and foot (Table 1.2)” value is 0.20 ± 0.06 Δcm in data set [10] (2 d); 0.08 ± 0.08 Δcm in data set [10] (9 d); 0.21 ± 0.16 Δcm in data set [10] (12 d); 0.44 ± 0.43 Δcm in data set [10] (14 d); 0.99 ± 0.63 Δcm in data set [10] (16 d); 0.84 ± 0.74 Δcm in [10] (18 d). Besides, the “Swelling degree, left anklejoint and foot (Table 1.2)” value is on record as 0.82 ± 0.72 Δcm in [10] (20 d); 0.79 ± 0.74 Δcm in data set [10] (22 d); 0.75 ± 0.67 Δcm in [10] (24 d); 0.68 ± 0.64 Δcm in data set [10] (26 d); 0.71 ± 0.67 Δcm in [10] (28 d). The “Swelling degree, right anklejoint and foot” value in [11] (2 d) is given as 0.10 ± 0.13 Δcm; in data set [11] (4 d) it was 0.15 ± 0.28 Δcm; in [11] (6 d) it was 0.11 ± 0.25 Δcm; in [11] (8 d), −0.08 ± 0.34 Δcm; in data set [11] (10 d), −0.13 ± 0.28 Δcm; in [11] (12 d) it was −0.26 ± 0.36 Δcm. Also, the “Swelling degree, right anklejoint and foot” value in data set [11] (14 d) is −0.33 ± 0.39 Δcm.
